For one data set, the target named is T1, HCoV-229E M^pro (Human coronavirus 229E, UniProt P0C6X1).
T1 construct: HCoV-229E M^pro (15 mg/ml; two amino acids deleted at C-terminal); made in house
Nature of the data set: biochemical.

The next data set deals with TGEV M^pro (Porcine transmissible gastroenteritis coronavirus, UniProt P0C6Y5). Nature of the data set: biochemical.
In another data set the target is FIPV M^pro (Feline coronavirus, UniProt Q98VG9). Nature of the data set: biochemical. To be noted: pH 7.3, read-out: kobs/[I].
The target of the next data set is MHV M^pro (Murine coronavirus, UniProt P0C6X9). Briefly: biochemical. Particulars: pH 7.3, read-out: kobs/[I].
For another data set, the target named is IBV M^pro (Avian infectious bronchitis virus, UniProt P0C6Y3). Nature of the data set: biochemical.
The test system of another data set is CoV M^pros. Type of data set: biochemical.
Another data set addresses SARS-CoV M^pro (Severe acute respiratory syndrome coronavirus, UniProt P0C6X7). Briefly: biochemical.
A further data set addresses M^pro of HCoV-NL63 (Human coronavirus NL63, UniProt P0C6X5). Format: biochemical.
Another data set deals with M^pro of HCoV-HKU1 (Human coronavirus HKU1, UniProt P0C6X2). Type of data set: biochemical.
Another data set has as its system HCoV-229E. Briefly: microbe, parasite or virus in culture. Format: cell-based. Particulars: Human coronavirus 229E, MRC5, 14 h.
The next data set has as its system FIPV. Briefly: microbe, parasite or virus in culture. Type of data set: cell-based, FIPV (strain 79–1146). To be noted: Alphacoronavirus 1, 14 h.
In data set [1] the test system is MHV-A59. Briefly: organism not typed. Type of data set: cell-based. Particulars: 14 h.
Data set [2] deals with MHV-A59. Nature of the data set: MHV-A59 plaque-reduction assay in DBT cells. Type of data set: cell-based. The protocol: Murine DBT cells (generously provided by Dr. Lishan Su of University of North Carolina) were cultured in Dulbecco's modified Eagle's medium supplemented with 10% fetal bovine serum (FBS) and antibiotics at 37 °C in 5% CO2.
DBT cells were suspended in growth medium in triplicate wells in 6-well plates and preincubated with appropriate concentrations of the inhibitor. The next day, the medium was aspirated, and MHV-A59 was added to each well at a titer of 100 PFU/well. After incubation for 1 h, the virus inoculum was aspirated, and 2 ml of a media-agar overlay with appropriate concentrations of inhibitor was added to each well. The plates were further incubated for 24 h and stained with neutral red to visualize plaques.
On the technique in general: Plaque reduction counts the foci of infection that form in a cell layer.

In the next data set the test system is DBT cells. Briefly: Cytotoxicity assay (MTT). Type of data set: cell-based, murine. To be noted: 500 μM, two days. Here is the method: DBT cells were suspended in growth medium in 96-well plates. The next day, appropriate concentrations of the inhibitor were added to the medium. Two days later, the relative numbers of surviving cells were measured by MTT (Sigma, St. Louis, Missouri, United States) assay in accordance with the manufacturer's instructions.

The test system of a further data set is SARS-CoV. Particulars: cell-based assays; data to be published elsewhere.
The next data set deals with TGEV. Nature of the data set: Cell-based assay of TGEV replication. Particulars: cell-based assays; data to be published elsewhere.
The next data set concerns CoVs. To be noted: cited from earlier work.
Details of data set [3]: method as in PMID 14638501, PMID 11796347. To be noted: cited from earlier work.
Details of data set [4]: method as in PMID 14638501, PMID 11796347. Particulars: in animals; cited from earlier work.
The subject of a further data set is rhinovirus. Also noted: method as in PMID 14638501, PMID 11796347. To be noted: intranasal suspension; cited from earlier work.
On the set-up of data set [5]: method as in PMID 14638501, PMID 11796347. To be noted: cited from earlier work. The source holds these as a separate data set.

Sequence of IBV M^pro (P0C6Y3 2782-3088): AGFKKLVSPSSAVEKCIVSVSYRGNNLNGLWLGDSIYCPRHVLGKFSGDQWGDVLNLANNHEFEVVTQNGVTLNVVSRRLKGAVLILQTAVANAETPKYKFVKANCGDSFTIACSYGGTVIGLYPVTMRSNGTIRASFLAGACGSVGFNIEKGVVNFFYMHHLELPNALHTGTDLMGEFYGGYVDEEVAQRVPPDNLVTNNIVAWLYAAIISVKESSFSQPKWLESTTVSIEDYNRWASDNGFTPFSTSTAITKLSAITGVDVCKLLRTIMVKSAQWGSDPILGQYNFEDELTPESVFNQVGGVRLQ
Sequence of TGEV M^pro (P0C6Y5 2879-3180): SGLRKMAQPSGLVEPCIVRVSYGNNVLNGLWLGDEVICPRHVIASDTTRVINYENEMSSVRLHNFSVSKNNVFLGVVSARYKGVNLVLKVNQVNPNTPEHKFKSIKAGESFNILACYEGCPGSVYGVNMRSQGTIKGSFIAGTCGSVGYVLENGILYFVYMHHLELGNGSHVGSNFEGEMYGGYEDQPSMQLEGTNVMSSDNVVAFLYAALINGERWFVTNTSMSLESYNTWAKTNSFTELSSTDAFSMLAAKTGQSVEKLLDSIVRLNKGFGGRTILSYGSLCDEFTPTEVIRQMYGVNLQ
T1 sequence (P0C6X1 2966-3265 limits assumed): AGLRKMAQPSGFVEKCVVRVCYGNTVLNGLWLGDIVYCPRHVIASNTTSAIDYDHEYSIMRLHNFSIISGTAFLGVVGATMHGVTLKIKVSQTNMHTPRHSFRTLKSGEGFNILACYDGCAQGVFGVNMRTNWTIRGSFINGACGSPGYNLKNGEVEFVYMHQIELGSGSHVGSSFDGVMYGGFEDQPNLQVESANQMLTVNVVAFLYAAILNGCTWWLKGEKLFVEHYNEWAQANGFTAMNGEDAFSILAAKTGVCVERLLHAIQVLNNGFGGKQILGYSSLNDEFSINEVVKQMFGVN
Sequence of MHV M^pro (P0C6X9 3334-3635): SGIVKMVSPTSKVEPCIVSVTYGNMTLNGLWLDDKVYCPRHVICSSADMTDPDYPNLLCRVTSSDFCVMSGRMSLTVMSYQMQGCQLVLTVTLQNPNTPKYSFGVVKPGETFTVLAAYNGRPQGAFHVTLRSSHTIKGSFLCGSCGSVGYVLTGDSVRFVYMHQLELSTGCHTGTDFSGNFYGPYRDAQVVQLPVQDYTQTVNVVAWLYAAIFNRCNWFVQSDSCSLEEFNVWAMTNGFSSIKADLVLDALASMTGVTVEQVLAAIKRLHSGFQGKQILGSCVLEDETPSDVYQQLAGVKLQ
Sequence of FIPV M^pro (Q98VG9 2904-3205): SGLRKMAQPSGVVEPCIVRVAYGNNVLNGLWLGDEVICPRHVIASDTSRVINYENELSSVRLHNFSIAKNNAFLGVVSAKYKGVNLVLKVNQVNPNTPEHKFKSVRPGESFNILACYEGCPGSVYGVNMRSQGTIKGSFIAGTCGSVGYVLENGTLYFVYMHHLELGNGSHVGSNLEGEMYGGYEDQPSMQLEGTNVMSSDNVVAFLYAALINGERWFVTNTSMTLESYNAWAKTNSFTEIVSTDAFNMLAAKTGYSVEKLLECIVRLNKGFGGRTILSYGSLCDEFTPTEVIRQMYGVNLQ
Sequence of M^pro of HCoV-HKU1 (P0C6X2 3335-3637): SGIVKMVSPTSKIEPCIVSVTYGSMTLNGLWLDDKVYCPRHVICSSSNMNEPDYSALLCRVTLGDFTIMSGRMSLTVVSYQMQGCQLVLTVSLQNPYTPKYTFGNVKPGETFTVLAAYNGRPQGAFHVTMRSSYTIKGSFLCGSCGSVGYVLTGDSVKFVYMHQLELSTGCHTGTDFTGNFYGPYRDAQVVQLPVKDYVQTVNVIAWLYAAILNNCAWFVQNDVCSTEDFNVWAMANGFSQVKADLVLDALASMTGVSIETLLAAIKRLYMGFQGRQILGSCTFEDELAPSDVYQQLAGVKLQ
Sequence of M^pro of HCoV-NL63 (P0C6X5 2940-3242): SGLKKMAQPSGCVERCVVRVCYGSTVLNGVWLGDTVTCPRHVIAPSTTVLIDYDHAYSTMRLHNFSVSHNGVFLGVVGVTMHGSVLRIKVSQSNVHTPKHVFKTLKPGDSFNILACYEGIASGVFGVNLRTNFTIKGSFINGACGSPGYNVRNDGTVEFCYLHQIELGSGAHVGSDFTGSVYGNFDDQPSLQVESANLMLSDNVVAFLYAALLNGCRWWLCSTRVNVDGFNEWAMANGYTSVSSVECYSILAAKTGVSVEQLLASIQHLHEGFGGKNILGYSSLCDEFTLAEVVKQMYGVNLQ

The Ki is a measure of affinity in units of concentration, obtained from inhibition or displacement. Regarding `CCOC(=O)/C=C/[C@H](C[C@@H]1CCNC1=O)NC(=O)[C@H](CC(C)C)NC(=O)[C@@H](NC(=O)[C@H](C)NC(=O)c1cc(C)on1)C(C)C` [N1], the Ki at HCoV-229E M^pro was 1.11 ± 0.09 µM; at TGEV M^pro, 3.2 ± 0.2 µM; at IBV M^pro, 3.9 ± 0.9 µM; on CoV M^pros (read-out: Ki, range over CoV M^pros), 1.11 to 10.7 µM. Moreover, the k3 is listed as 14.8 ± 0.7 × 10^−3s^−1 on HCoV-229E M^pro; 50 ± 3 × 10^−3s^−1 on TGEV M^pro; 14.5 ± 1.2 × 10^−3s^−1 at IBV M^pro (IBV M^pro, inactivation rate constant). The kinact/KI on FIPV M^pro was 24000 M⁻¹ s⁻¹; on MHV M^pro it was 2800 M⁻¹ s⁻¹. Besides, in the data set with CoV M^pros, the “in vitro inactivation of all CoV M^pros tested” value is reported as “fast in vitro inactivation”. The “k3, range over CoV M^pros” value in the data set with CoV M^pros is 4.1–50 × 10^−3s^−1.
In general, IC50 refers to the point on the concentration scale where inhibition reaches its midpoint. The EC50 is the concentration at which the effect is half-maximal. A lower EC50 goes with higher potency in that assay. Consider `Cc1cc(C(=O)N[C@@H](C)C(=O)N[C@H](C(=O)N[C@@H](CC(C)C)C(=O)N[C@H](/C=C/C(=O)OCc2ccccc2)C[C@@H]2CCNC2=O)C(C)C)no1` [N3], for which the Ki came to 1.67 ± 0.18 µM on HCoV-229E M^pro and 9 ± 0.8 µM on SARS-CoV M^pro. The k3 was 18.0 ± 1.1 × 10^−3s^−1 on HCoV-229E M^pro and 3.1 ± 0.5 × 10^−3s^−1 on SARS-CoV M^pro. The kinact/KI was 13000 M⁻¹ s⁻¹ on TGEV M^pro (pH 7.3, read-out: kobs/[I]); 47000 M⁻¹ s⁻¹ at FIPV M^pro; 4800 M⁻¹ s⁻¹ at MHV M^pro; 7900 M⁻¹ s⁻¹ on IBV M^pro (pH 7.3, read-out: kobs/[I]). Also, the “in vitro inactivation of all CoV M^pros tested” value in the data set on CoV M^pros was “fast in vitro inactivation”. Also, the “inhibition on M^pro of HCoV-NL63” value on M^pro of HCoV-NL63 is reported as “potent inhibition”. For the same compound, the “inhibition on M^pro of HCoV-HKU1” value at M^pro of HCoV-HKU1 is “potent inhibition”. Besides, the concentration for half-maximal inhibition (IC50) was 4 µM in the data set on HCoV-229E, 8.8 µM with FIPV and 2.7 µM in the data set on MHV-A59 [1]. Moreover, in the data set on MHV-A59 [2] (8 μM N3), the “protection of DBT cells from MHV infection” value was “sufficiently protected”. This compound also had an EC50 in the data set with MHV-A59 [2] (DBT cells, low-multiplicity (MOI = 0.01)) of 3.4 µM. The “inhibition of cell growth” value in the data set with DBT cells amounted to 28.3%. Further, in the data set with SARS-CoV, the “inhibition of replication of SARS-CoV” value was “strongly inhibit”. Also, the “inhibition of replication of TGEV” value in the data set with TGEV is “strongly inhibit”.
As for `CCOC(=O)/C=C/[C@H](C[C@@H]1CCNC1=O)NC(=O)[C@@H](CC(=O)[C@@H](NC(=O)c1cc(C)on1)C(C)C)Cc1ccc(F)cc1` [Ruprintrivir, ruprintrivir], in the data set with CoVs, the “inhibition of CoVs” value is listed as “did not show inhibition”. In [3], the aqueous solubility result is “poor”. For the same compound, the oral bioavailability entry in data set [4] is given as “low”. The “effect of prophylaxis in Phase II studies” value in the data set with rhinovirus was “reduced the proportion of subjects with positive viral cultures and viral titers”. Moreover, in data set [5], the “most common adverse effects” value is “blood-tinged mucus and nasal passage irritation”; the tolerability result was “well tolerated”.
